Like-named read-outs stand apart in the source and are kept apart here.
Key:
human recombinant HDAC6 = molecular target: T1, human recombinant HDAC6 (Homo sapiens, UniProt Q9UBN7); experiment: HDAC6 enzyme activity inhibition (HDAC Fluorimetric Drug Discovery Kit); type: biochemical
T1 construct: purchased Calbiochem Inc. 382180
T1 sequence (Q9UBN7 1-1215): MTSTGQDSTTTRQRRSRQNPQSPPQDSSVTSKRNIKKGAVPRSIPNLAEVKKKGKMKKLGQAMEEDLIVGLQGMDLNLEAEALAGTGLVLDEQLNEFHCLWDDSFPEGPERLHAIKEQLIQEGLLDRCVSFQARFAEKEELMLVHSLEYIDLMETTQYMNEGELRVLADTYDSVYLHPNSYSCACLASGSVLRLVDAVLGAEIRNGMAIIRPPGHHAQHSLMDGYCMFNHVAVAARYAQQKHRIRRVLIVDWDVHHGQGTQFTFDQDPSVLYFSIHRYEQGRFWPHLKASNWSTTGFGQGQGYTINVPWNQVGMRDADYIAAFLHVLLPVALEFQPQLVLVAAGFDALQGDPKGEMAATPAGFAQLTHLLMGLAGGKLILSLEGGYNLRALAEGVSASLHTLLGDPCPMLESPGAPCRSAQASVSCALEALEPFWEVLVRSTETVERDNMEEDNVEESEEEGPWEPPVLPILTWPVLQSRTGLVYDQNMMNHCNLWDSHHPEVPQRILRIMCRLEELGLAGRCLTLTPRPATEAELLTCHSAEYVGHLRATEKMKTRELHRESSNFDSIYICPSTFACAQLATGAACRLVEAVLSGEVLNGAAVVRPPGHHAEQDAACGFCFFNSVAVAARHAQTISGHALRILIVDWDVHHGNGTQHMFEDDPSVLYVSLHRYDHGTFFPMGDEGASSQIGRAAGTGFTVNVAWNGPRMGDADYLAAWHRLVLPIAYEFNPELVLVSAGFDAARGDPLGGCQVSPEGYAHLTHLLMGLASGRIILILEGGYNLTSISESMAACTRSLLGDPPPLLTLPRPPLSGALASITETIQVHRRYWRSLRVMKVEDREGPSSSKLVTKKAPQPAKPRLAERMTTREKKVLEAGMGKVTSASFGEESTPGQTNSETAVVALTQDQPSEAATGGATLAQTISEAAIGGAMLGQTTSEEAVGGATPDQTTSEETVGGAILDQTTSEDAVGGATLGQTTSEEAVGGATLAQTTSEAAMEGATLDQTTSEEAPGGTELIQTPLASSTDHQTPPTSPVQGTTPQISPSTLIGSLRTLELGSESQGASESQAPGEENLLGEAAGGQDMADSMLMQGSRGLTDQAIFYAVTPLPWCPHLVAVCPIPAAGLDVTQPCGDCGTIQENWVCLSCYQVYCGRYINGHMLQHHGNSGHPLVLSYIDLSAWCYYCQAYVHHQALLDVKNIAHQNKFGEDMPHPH
Method in brief: (§1)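 Fluorimetric deacetylase read-out. 5-fold compound dilutions; […] enzyme, 10 μM substrate; 30° C, 60 min; developer 30 min.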

human recombinant HDAC1 = molecular target: T2, human recombinant HDAC1 (Homo sapiens, UniProt Q13547); experiment: HDAC1 enzyme activity inhibition (HDAC Fluorimetric Drug Discovery Kit); type: biochemical; conditions: read-out: HDAC1
T2 construct: purchased Enzo Life Science, Inc. BML-SE456
T2 sequence (Q13547 whole entry): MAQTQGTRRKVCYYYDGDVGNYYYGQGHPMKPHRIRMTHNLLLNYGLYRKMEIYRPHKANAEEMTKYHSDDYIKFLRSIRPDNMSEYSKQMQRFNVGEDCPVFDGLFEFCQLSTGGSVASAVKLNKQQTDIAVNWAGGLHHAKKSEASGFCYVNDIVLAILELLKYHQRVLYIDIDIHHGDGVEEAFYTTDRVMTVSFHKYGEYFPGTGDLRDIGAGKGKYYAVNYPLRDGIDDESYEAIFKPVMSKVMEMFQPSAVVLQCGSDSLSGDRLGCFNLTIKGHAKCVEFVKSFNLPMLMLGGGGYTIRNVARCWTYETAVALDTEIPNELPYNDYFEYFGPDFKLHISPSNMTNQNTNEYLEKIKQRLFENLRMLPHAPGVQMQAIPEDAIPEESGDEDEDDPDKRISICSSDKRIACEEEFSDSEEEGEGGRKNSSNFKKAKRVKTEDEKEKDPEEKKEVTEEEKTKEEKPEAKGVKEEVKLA
Method in brief: as §1

[1] = human recombinant HDAC6, IC50 calculated with GraphPad Prism
[2] = human recombinant HDAC1, IC50 calculated with GraphPad Prism
[3] = human recombinant HDAC6, same protocol as HDAC1
[4] = human recombinant HDAC1, Fluor de Lys substrate, 30° C. 60 minutes

Row | HDAC6 selectivity (fold) (human recombinant HDAC6; HDAC1 IC50 / HDAC6 IC50) | IC50 (human recombinant HDAC6; [1]) [nM] | IC50 (human recombinant HDAC1; [2]) [nM] | HDAC6 selectivity (fold) (human recombinant HDAC6; HDAC6 over HDAC1) | IC50 (human recombinant HDAC6; [3]) [nM] | IC50 (human recombinant HDAC1; [4]) [nM] | Compound
1 | 100 | 496 | > 50000 |  |  |  | CCC(=O)N1CC(c2cn(Cc3ccc(-c4nnc(C(F)F)o4)cn3)nn2)C1 [Compound 3957, 1-(3-(1-((5-(5-(difluoromethyl)-1,3,4-oxadiazol-2-yl)pyridin-2-yl)methyl)-1H-1,2,3-triazol-4-yl)azetidin-1-yl)propan-1-one]
2 |  |  |  | 868 | 57.6 | > 50000 | Fc1cc(-c2nnc(C(F)F)o2)cnc1Cn1cc(-c2ccc(CN3CCCC3)cc2Cl)nn1 [Compound 19100, 2-(6-((4-(2-chloro-4-(pyrrolidin-1-ylmethyl)phenyl)-1H-1,2,3-triazol-1-yl)methyl)-5-fluoropyridin-3-yl)-5-(difluoromethyl)-1,3,4-oxadiazole]
3 |  |  |  | 4761 | 10.5 | > 50000 | FC(F)c1nnc(-c2ccc(Cn3cc(-c4ccc(CN5CC6(COC6)C5)cc4)nn3)cc2)o1 [Compound 4551, 6-(4-(1-(4-(5-(difluoromethyl)-1,3,4-oxadiazol-2-yl)benzyl)-1H-1,2,3-triazol-4-yl)benzyl)-2-oxa-6-azaspiro[3.3]heptane]
4 |  |  |  | 622 | 80.3 | > 50000 | COc1cccc(-c2cn(Cc3ccc(-c4nnc(C(F)F)o4)cc3F)nn2)n1 [Compound 18736, 2-(difluoromethyl)-5-(3-fluoro-4-((4-(6-methoxypyridin-2-yl)-1H-1,2,3-triazol-1-yl)methyl)phenyl)-1,3,4-oxadiazole]
5 | 988 | 50.6 | > 50000 |  |  |  | Fc1ccc(-c2cn(Cc3ccc(-c4nnc(C(F)F)o4)cc3)nn2)cc1N1C[C@@H]2C[C@H]1CN2 [Compound 4398, 2-(4-((4-(3-((1S,4S)-2,5-diazabicyclo[2.2.1]heptan-2-yl)-4-fluorophenyl)-1H-1,2,3-triazol-1-yl)methyl)phenyl)-5-(difluoromethyl)-1,3,4-oxadiazole]
6 | 1182 | 42.3 | > 50000 |  |  |  | CCN1CCc2cc(-c3cn(Cc4ccc(-c5nnc(C(F)F)o5)cc4F)nn3)ccc2C1 [Compound 4359, 2-(difluoromethyl)-5-(4-((4-(2-ethyl-1,2,3,4-tetrahydroisoquinolin-6-yl)-1H-1,2,3-triazol-1-yl)methyl)-3-fluorophenyl)-1,3,4-oxadiazole]
7 | 175 | 285 | > 50000 |  |  |  | O=C(O)c1cccc(-c2cn(Cc3ccc(-c4nnc(C(F)F)o4)cc3F)nn2)c1 [Compound 3660, 3-(1-(4-(5-(difluoromethyl)-1,3,4-oxadiazol-2-yl)-2-fluorobenzyl)-1H-1,2,3-triazol-4-yl)benzoic acid]
8 |  |  |  | 2222 | 22.5 | > 50000 | CCN1CCN(Cc2ccc(-c3cn(Cc4ccc(-c5nnc(C(F)F)o5)cn4)nn3)cc2)CC1 [Compound 4563, 2-(difluoromethyl)-5-(6-((4-(4-((4-ethylpiperazin-1-yl)methyl)phenyl)-1H-1,2,3-triazol-1-yl)methyl)pyridin-3-yl)-1,3,4-oxadiazole]
9 | 602 | 83 | > 50000 |  |  |  | FC(F)c1nnc(-c2ccc(Cn3cc(-c4ccc5sccc5c4)nn3)nc2)o1 [Compound 4074, 2-(6-((4-(benzo[b]thiophen-5-yl)-1H-1,2,3-triazol-1-yl)methyl)pyridin-3-yl)-5-(difluoromethyl)-1,3,4-oxadiazole]
10 |  |  |  | 413 | 121 | > 50000 | CN1CCc2cc(-c3cn(Cc4ccc(-c5nnc(C(F)F)o5)cc4F)nn3)sc2C1 [Compound 4500, 2-(difluoromethyl)-5-(3-fluoro-4-((4-(6-methyl-4,5,6,7-tetrahydrothieno[2,3-c]pyridin-2-yl)-1H-1,2,3-triazol-1-yl)methyl)phenyl)-1,3,4-oxadiazole]
11 | 3355 | 14.9 | > 50000 |  |  |  | CC(C)(C)OC(=O)NC1(C(=O)Nc2cccc(-c3cn(Cc4ccc(-c5nnc(C(F)F)o5)cn4)nn3)c2)CCC1 [Compound 4496, tert-butyl (1-((3-(1-((5-(5-(difluoromethyl)-1,3,4-oxadiazol-2-yl)pyridin-2-yl)methyl)-1H-1,2,3-triazol-4-yl)phenyl)carbamoyl)cyclobutyl)carbamate]
12 |  |  |  | 606 | 82.4 | > 50000 | Fc1cc(-c2nnc(C(F)F)o2)cnc1Cn1cc(-c2ccc(CN3CCC3)cn2)nn1 [Compound 18622, 2-(6-((4-(5-(azetidin-1-ylmethyl)pyridin-2-yl)-1H-1,2,3-triazol-1-yl)methyl)-5-fluoropyridin-3-yl)-5-(difluoromethyl)-1,3,4-oxadiazole]
13 | 627 | 79.7 | > 50000 |  |  |  | FC(F)c1cccc(-c2cn(Cc3ccc(-c4nnc(C(F)F)o4)cc3)nn2)c1 [Compound 4487, 2-(difluoromethyl)-5-(4-((4-(3-(difluoromethyl)phenyl)-1H-1,2,3-triazol-1-yl)methyl)phenyl)-1,3,4-oxadiazole]
14 | 954 | 52.4 | > 50000 |  |  |  | FC(F)c1nnc(-c2ccc(Cn3cnc(-c4ccccc4)c3)nc2)o1 [Compound 3950, 2-(difluoromethyl)-5-(6-((4-phenyl-1H-imidazol-1-yl)methyl)pyridin-3-yl)-1,3,4-oxadiazole]
15 | 258 | 193 | > 50000 |  |  |  | Cc1nc(-c2ccccc2)cn1Cc1ccc(-c2nnc(C(F)F)o2)cn1 [Compound 3945, 2-(difluoromethyl)-5-(6-((2-methyl-4-phenyl-1H-imidazol-1-yl)methyl)pyridin-3-yl)-1,3,4-oxadiazole]
16 |  |  |  | 2347 | 21.3 | > 50000 | CN(C)[C@H]1CCN(Cc2ccc(-c3cn(Cc4ccc(-c5nnc(C(F)F)o5)cc4F)nn3)cc2)C1 [Compound 4604, (S)-1-(4-(1-(4-(5-(difluoromethyl)-1,3,4-oxadiazol-2-yl)-2-fluorobenzyl)-1H-1,2,3-triazol-4-yl)benzyl)-N,N-dimethylpyrrolidin-3-amine]
17 |  |  |  | 5882 | 8.5 | > 50000 | FC(F)c1nnc(-c2ccc(Cn3cc(-c4ccc(CN5CCC5)cc4)nn3)nc2)o1 [Compound 4558, 2-(6-((4-(4-(azetidin-1-ylmethyl)phenyl)-1H-1,2,3-triazol-1-yl)methyl)pyridin-3-yl)-5-(difluoromethyl)-1,3,4-oxadiazole]
18 |  |  |  | 3246 | 15.4 | > 50000 | CC(C)N1CCN(c2cc(-c3cn(Cc4ccc(-c5nnc(C(F)F)o5)cn4)nn3)ccn2)CC1 [Compound 4592, 2-(difluoromethyl)-5-(6-((4-(2-(4-isopropylpiperazin-1-yl)pyridin-4-yl)-1H-1,2,3-triazol-1-yl)methyl)pyridin-3-yl)-1,3,4-oxadiazole]
19 |  |  |  | 365 | 137 | > 50000 | CC(C)N1CCc2cc(-c3cn(Cc4ccc(-c5nnc(C(F)F)o5)cc4F)nn3)sc2C1 [Compound 4501]
20 |  |  |  | 1046 | 47.8 | > 50000 | CN1Cc2cccc(-c3cn(Cc4ccc(-c5nnc(C(F)F)o5)cn4)nn3)c2C1 [Compound 4595, 2-(difluoromethyl)-5-(6-((4-(2-methylisoindolin-4-yl)-1H-1,2,3-triazol-1-yl)methyl)pyridin-3-yl)-1,3,4-oxadiazole]
21 | 343 | 145 | > 50000 |  |  |  | CCCc1cn(Cc2ccc(-c3nnc(C(F)F)o3)cn2)nn1 [Compound 3831, 2-(difluoromethyl)-5-(6-((4-propyl-1H-1,2,3-triazol-l-yl)methyl)pyridin-3-yl)-1,3,4-oxadiazole]

Source: patent publication US20230257372A1 (CHONG KUN DANG PHARMACEUTICAL CORP., priority 2020, published 2023)
